Source: ChEMBL document CHEMBL1131545, “A practical synthesis of 3-substituted delta 3,5(6)-steroids as new potential 5 alpha-reductase inhibitor” (Bioorg Med Chem Lett, 1998)

Columns and labels:
[1] = target: T1, Steroid 5-alpha-reductase (Rattus norvegicus, UniProt P24008+P31214); assay: Ability to inhibit Steroid 5-alpha-reductase in rat using Enzyme kinetics method.
T1 sequence (P24008 whole entry): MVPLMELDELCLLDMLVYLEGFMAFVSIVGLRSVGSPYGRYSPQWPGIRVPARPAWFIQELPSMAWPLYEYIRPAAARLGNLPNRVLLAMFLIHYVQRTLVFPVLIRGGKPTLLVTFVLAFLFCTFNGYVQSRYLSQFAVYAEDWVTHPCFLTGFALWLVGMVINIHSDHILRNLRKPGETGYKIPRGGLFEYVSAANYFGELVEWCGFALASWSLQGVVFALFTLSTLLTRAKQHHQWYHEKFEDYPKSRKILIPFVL
T1 sequence (P31214 whole entry): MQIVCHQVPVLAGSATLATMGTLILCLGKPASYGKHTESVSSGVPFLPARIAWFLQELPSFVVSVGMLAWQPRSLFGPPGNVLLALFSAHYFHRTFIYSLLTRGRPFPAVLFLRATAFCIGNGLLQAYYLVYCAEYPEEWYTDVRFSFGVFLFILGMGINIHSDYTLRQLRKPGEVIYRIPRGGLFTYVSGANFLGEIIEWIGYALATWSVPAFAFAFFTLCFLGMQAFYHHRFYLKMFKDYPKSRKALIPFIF

[2] = target: T1, Steroid 5-alpha-reductase; assay: Ability to inhibit Steroid 5-alpha-reductase in rat using Isotope method [3H]T to [3H]-DHT]

CC(C)(C)NC(=O)[C@H]1CCC2C3CC=C4C=CCC[C@]4(C)C3CC[C@@]21C (some centres not stated)
Ki [1]: >> 1000 nM
Ki [2]: >> 1000 nM

CC(C)(C)NC(=O)[C@H]1CCC2C3CC=C4C=C(C#Cc5ccccc5)CC[C@]4(C)C3CC[C@@]21C (some centres not stated)
Ki [1]: 45.8 nM
Ki [2]: 100.2 nM

CCOP(=O)(OCC)C1=CC2=CCC3C(CC[C@@]4(C)C3CC[C@@H]4C(=O)NC(C)(C)C)[C@@]2(C)CC1 (some centres not stated)
Ki [1]: 18.1 nM
Ki [2]: 68.5 nM

CC(=O)C1=CC2=CCC3C(CC[C@@]4(C)C3CC[C@@H]4C(=O)NC(C)(C)C)[C@@]2(C)CC1 (some centres not stated)
Ki [1]: >> 1000 nM
Ki [2]: >> 1000 nM

CCN(CC)C(=O)C1=CC2=CCC3C(CC[C@@]4(C)C3CC[C@@H]4C(=O)NC(C)(C)C)[C@@]2(C)CC1 (some centres not stated)
Ki [1]: >> 1000 nM
Ki [2]: >> 1000 nM

CC(C)(C)NC(=O)[C@H]1CC[C@H]2[C@@H]3CC[C@H]4NC(=O)C=C[C@]4(C)[C@H]3CC[C@]12C [FINASTERIDE]
Ki [1]: 54.7 nM
Ki [2]: 88.2 nM
